Experimental data reported in patent US11135176B1 (Florida A&M University, priority 2016, dated 2021).

What was measured:
[1] = Solubility of IBU in lipids (visual); type: physicochemical; set-up: key to Solubility of IBU in Geleol mono and diglyceride NF / Solubility of IBU in Glyceryl monostearate / Solubility of IBU in Stearic acid / Solubility of IBU in COMPRITOL ® 888ATO / Solubility of IBU in PRECIROL ® ATO5: +: Clear or transparent mixture implies the drug is soluble in lipid; conditions: for Solubility of IBU in COMPRITOL ® 888ATO / Solubility of IBU in Geleol mono and diglyceride NF / Solubility of IBU in Glyceryl monostearate / Solubility of IBU in PRECIROL ® ATO5 / Solubility of IBU in Stearic acid: 90° C.
Method: The selection of lipid was done by evaluating the solubility of IBU in different lipids such as Compritol® 888ATO (glyceryl behenate), Precirol® ATOS (glyceryl palmitosterate), geleol mono and diglyceride NF, glyceryl monostearate and stearic acid. Briefly, 10 mg of IBU was weighed and added into Eppendorf tube containing 100 mg of lipid. The mixture was then heated for 10 minutes in a water bath at 90° C. to facilitate solubilization. […] Finally, total of 40 mg of drug was added in 100 mg of lipid and checked for the precipitation.

[2] = Drug solubility in 4% of surfactant, analyzed by HPLC; type: physicochemical
[3] = 10 mg of IBU/100 mg of solid lipid
[4] = 20 mg of IBU/100 mg of solid lipid
[5] = 30 mg of IBU/100 mg of solid lipid
[6] = 40 mg of IBU/100 mg of solid lipid

With `CC(C)Cc1ccc(C(C)C(=O)O)cc1` (stereo not shown) [IBU, ibuprofen] the “Solubility of IBU in COMPRITOL ® 888ATO” value [1, 3] was “+”, the “Solubility of IBU in Geleol mono and diglyceride NF” value [1, 3] was “+” and the “Solubility of IBU in Glyceryl monostearate” value [1, 3] was “+”. The “Solubility of IBU in PRECIROL ® ATO5” value [1, 3] was “+”, the “Solubility of IBU in Stearic acid” value [1, 3] was “+” and the “Solubility of IBU in COMPRITOL ® 888ATO” value [1, 4] was “+”. The “Solubility of IBU in Geleol mono and diglyceride NF” value [1, 4] was “+”, the “Solubility of IBU in Glyceryl monostearate” value [1, 4] was “+” and the “Solubility of IBU in PRECIROL ® ATO5” value [1, 4] was “+”. The “Solubility of IBU in Stearic acid” value [1, 4] was “+”, the “Solubility of IBU in COMPRITOL ® 888ATO” value [1, 5] was “+” and the “Solubility of IBU in Geleol mono and diglyceride NF” value [1, 5] was “+”. The “Solubility of IBU in Glyceryl monostearate” value [1, 5] was “+”, the “Solubility of IBU in PRECIROL ® ATO5” value [1, 5] was “+” and the “Solubility of IBU in Stearic acid” value [1, 5] was “+”. For the same compound, the “Solubility of IBU in COMPRITOL ® 888ATO” value [1, 6] was “+”, the “Solubility of IBU in Geleol mono and diglyceride NF” value [1, 6] was “+” and the “Solubility of IBU in Glyceryl monostearate” value [1, 6] was “+”. The “Solubility of IBU in PRECIROL ® ATO5” value [1, 6] was “+”, the “Solubility of IBU in Stearic acid” value [1, 6] was “+” and the “solubility of IBU in the lipid” value ([1]; 40 of IBU, heated at 90 C, Compritol 888 ATO, Precirol ATO 5, geleol mono and diglyceride NF, glyceryl monostearate and stearic acid) was “completely soluble”. For the same compound, the “drug soluble in the surfactant” value [2] was “less than 5%”.
